Laboratory results from patent US8865756B2, “Inhibitors of HCV NS5A” (Presidio Pharmaceuticals, Inc., priority 2008, dated 2014).

What follows are molecules tested on HCV 1b_Huh-Luc/Neo-ET cell line persistently expressing a bicistronic genotype 1b replicon in Huh 7 cells (assay: HCV replicon assay (luciferase readout)). Details: Hepatitis C virus, Huh-7, 72 h, read-out: Inhibition of HCV genotype 1b.
Type: cell-based
Procedure, shortened: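 Huh 7 cells carrying a genotype 1b luciferase/neo replicon treated in triplicate for 72 h, then luciferase activity measured. Signal expressed as % of control; EC50 from four-parameter logistic fit, determined several times.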

Which EC50 does the source give for COC(=O)N[C@H](C(=O)N1CCC[C@H]1c1ncc(-c2ccc(C#Cc3ccc(-c4cnc([C@@H]5CCCN5C(=O)[C@@H](NC(=O)N5CCN(CCO)CC5)c5ccccc5)[nH]4)cc3)cc2)[nH]1)C(C)C [Compound 990] here?
Its EC50 is 1 to 9.9 nM.

For COC(=O)N[C@@H](C(=O)N1CCC[C@H]1c1ncc(-c2ccc(C#Cc3ccc(-c4cnc([C@@H]5CCCN5C(=O)[C@H](C(C)C)N5CCOC5=O)[nH]4)cc3)cc2)[nH]1)c1ccccc1 [Compound 1005], which EC50 is on record?
The EC50 was < 1 nM.

How did the EC50 turn out when COC(=O)N[C@H](C(=O)N1CCC[C@H]1c1nc(-c2ccc3cc(C#Cc4cnc([C@@H]5CCCN5C(=O)[C@H](NC(=O)OC)c5ccccc5)[nH]4)ccc3c2)c[nH]1)C(C)C [Compound 1077] was run?
The EC50 was < 1 nM.

For COC(=O)N[C@@H](CC(=O)N1CCC[C@H]1c1ncc(-c2ccc(C#Cc3ccc4nc([C@@H]5CCCN5C(=O)C[C@H](NC(=O)OC)C(C)C)[nH]c4c3)cc2)[nH]1)C(C)C [Compound 1064], which EC50 is on record?
Its EC50 is 10 to 999 nM.

With O=C(N[C@@H](C(=O)N1CCC[C@H]1c1ncc(C#Cc2ccc(-c3ccc(-c4cnc([C@@H]5CCCN5C(=O)[C@H](NC(=O)N5CC[C@H](O)C5)c5ccccc5)[nH]4)cc3)cc2)[nH]1)c1ccccc1)N1CC[C@H](O)C1 [Compound 762] as the molecule, how does the EC50 read?
Its EC50 is < 1 nM.

With CNC(=O)N[C@@H](C(=O)N1CCC[C@H]1c1ncc(-c2ccc(C#Cc3ccc(-c4cnc([C@@H]5CCCN5C(=O)[C@H](NC(=O)C5CC5)c5ccccc5)[nH]4)cc3)cc2)[nH]1)c1ccccc1 [Compound 997] as the molecule, how does the EC50 read?
The EC50 was < 1 nM.

O=C(N[C@@H](C(=O)N1CCC[C@H]1c1ncc(-c2ccc(C#Cc3ccc(-c4cnc([C@@H]5CCCN5C(=O)[C@H](NC(=O)OC5CCOCC5)c5ccccc5)[nH]4)c(F)c3)cc2)[nH]1)c1ccccc1)OC1CCOCC1 [Compound 1014] was tested. Which EC50 did it give?
Its EC50 is < 1 nM.

With COC(=O)N[C@@H](C(=O)N1CCC[C@H]1c1ncc(-c2ccc(C#Cc3ccc(-c4cnc([C@@H]5CCCN5C(=O)Nc5ccccc5)[nH]4)cc3)cc2)[nH]1)c1ccccc1 [Compound 196] as the molecule, how does the EC50 read?
Its EC50 is 1 to 9.9 nM.

CC(C)[C@H](NC(=O)N1CCC(O)CC1)C(=O)N1CCC[C@H]1c1ncc(-c2ccc(C#Cc3ccc(-c4cnc([C@@H]5CCCN5C(=O)[C@@H](NC(=O)N5CCC(O)CC5)C(C)C)[nH]4)cc3)cc2)[nH]1 [Compound 286] was tested. Which EC50 did it give?
The EC50 was > 1000 nM.

For O=C(N[C@@H](C(=O)N1CCC[C@H]1c1ncc(-c2ccc(C#Cc3ccc(-c4cnc([C@@H]5CCCN5C(=O)[C@H](NC(=O)N5CC[C@H](O)C5)c5ccccc5)[nH]4)cc3)cc2)[nH]1)c1ccccc1)N1CC[C@H](O)C1 [Compound 245], which EC50 is on record?
Its EC50 is < 1 nM.

Which EC50 does the source give for COC(=O)N[C@@H](CCC(=O)O)C(=O)N1CCC[C@H]1c1ncc(-c2ccc(C#Cc3ccc4nc([C@@H]5CCCN5C(=O)[C@H](CCC(=O)O)NC(=O)OC)[nH]c4c3)cc2)[nH]1 [Compound 1047] here?
Its EC50 is 10 to 999 nM.

COC(=O)N[C@H](C(=O)N[C@@H](C)c1ncc(-c2ccc(C#Cc3ccc(-c4cnc([C@@H]5CCCN5C(=O)[C@@H](C(C)C)N(C)C)[nH]4)cc3)cc2)[nH]1)C(C)C [Compound 964] was tested. Which EC50 did it give?
The EC50 was 1 to 9.9 nM.

With COC(=O)N[C@@H](C(=O)N1CCC[C@H]1c1ncc(-c2ccc(C#Cc3ccc(-c4cnc([C@@H]5CCCN5C(=O)[C@H](NC(=O)[C@@H]5CCCN5)c5ccccc5)[nH]4)cc3)cc2)[nH]1)c1ccccc1 [Compound 206] as the molecule, how does the EC50 read?
Its EC50 is < 1 nM.

For CS(=O)(=O)N[C@@H](C(=O)N1CCC[C@H]1c1ncc(-c2ccc(C#Cc3ccc(-c4cnc([C@@H]5CCCN5C(=O)[C@H](NS(C)(=O)=O)c5ccccc5)[nH]4)cc3)cc2)[nH]1)c1ccccc1 [Compound 226], which EC50 is on record?
Its EC50 is < 1 nM.

O=C(Cc1cccnc1)N[C@@H](C(=O)N1CCC[C@H]1c1cc(-c2ccc(C#Cc3ccc(-c4cnc([C@@H]5CCCN5C(=O)[C@H](NC(=O)Cc5cccnc5)c5ccccc5)[nH]4)cc3)cc2)n[nH]1)c1ccccc1 [Compound 222] was tested. Which EC50 did it give?
The EC50 was < 1 nM.

Which EC50 does the source give for O=C(N[C@@H](C(=O)N1CCC[C@H]1c1cc(-c2ccc(C#Cc3ccc(-c4cnc([C@@H]5CCCN5C(=O)[C@H](NC(=O)[C@@H]5CCCO5)c5ccccc5)[nH]4)cc3)cc2)n[nH]1)c1ccccc1)[C@@H]1CCCO1 [Compound 214] here?
Its EC50 is < 1 nM.

COC(=O)N[C@@H](C(=O)N1CCC[C@H]1c1ncc(-c2ccc(C#Cc3ccc(-c4cnc([C@@H]5CCCN5C(=O)[C@H]5CCCN5C)[nH]4)cc3)cc2)[nH]1)c1ccccc1 [Compound 187] was tested. Which EC50 did it give?
Its EC50 is < 1 nM.

COC(=O)N[C@H](C(=O)N1CCC[C@H]1c1ncc(-c2ccc(C#Cc3ccc(-c4cnc([C@@H]5CCCN5C(=O)[C@@H](NC(=O)OC)C(C)C)[nH]4)cc3)cc2)[nH]1)C(C)C [Compound 266] was tested. Which EC50 did it give?
The EC50 was < 1 nM.

How did the EC50 turn out when COC(=O)N[C@H](C(=O)N1CCC[C@H]1c1nc2ccc(C#Cc3ccc(-c4ccc5nc([C@@H]6CCCN6C(=O)[C@@H](NC(=O)OC)C(C)C)[nH]c5c4)nc3)cc2[nH]1)C(C)C [Compound 1083] was run?
The EC50 was < 1 nM.

With CN(C)C(=O)N[C@@H](C(=O)N1CCC[C@H]1c1ncc(-c2ccc(C#Cc3ccc(-c4cnc([C@@H]5CCCN5C(=O)[C@H](NC(=O)N(C)C)c5ccccc5)[nH]4)cc3)cc2)[nH]1)c1ccccc1 [Compound 161] as the molecule, how does the EC50 read?
Its EC50 is < 1 nM.

How did the EC50 turn out when COC(=O)N[C@@H](C(=O)N1CCC[C@H]1c1ncc(-c2ccc(C#Cc3ccc(-c4cnc([C@@H]5CCCN5C(=O)[C@@H](c5ccccc5)N5CCCCC5)[nH]4)cc3)cc2)[nH]1)c1ccccc1 [Compound 188] was run?
The EC50 was < 1 nM.

With COC(=O)N[C@H](C(=O)N1CCC[C@H]1c1ncc(-c2ccc(C#Cc3ccc4c(ccc5nc([C@@H]6CCCN6C(=O)[C@@H](NC(=O)OC)C(C)C)[nH]c54)c3)cc2)[nH]1)C(C)C [Compound 1095] as the molecule, how does the EC50 read?
Its EC50 is < 1 nM.

With COC(=O)N[C@@H](C(=O)N1CCC[C@H]1c1ncc(C#Cc2ccc(C#Cc3cnc([C@@H]4CCCN4C(=O)[C@H](NC(=O)OC)c4ccccc4)[nH]3)cc2)[nH]1)c1ccccc1 [Compound 304] as the molecule, how does the EC50 read?
Its EC50 is < 1 nM.

For COC(=O)N[C@H](C(=O)N1CCC[C@H]1c1ncc(-c2ccc(C#Cc3ccc4nc([C@@H]5CCCN5C(=O)[C@@H](NC(=O)OC)C(C)(C)C)[nH]c4c3)cc2)[nH]1)C(C)(C)C [Compound 1041], which EC50 is on record?
Its EC50 is < 1 nM.

How did the EC50 turn out when CC(C)[C@@H](NC(=O)OC(C)(C)C)C(=O)N1CCC[C@H]1c1ncc(C#Cc2ccc(C#Cc3cnc([C@@H]4CCCN4C(=O)[C@H](NC(=O)OC(C)(C)C)C(C)C)[nH]3)cc2)[nH]1 [Compound 301] was run?
The EC50 was > 1000 nM.

For COC(=O)N[C@@H](C(=O)N1CCC[C@H]1c1ncc(-c2ccc(C#Cc3ccc(-c4cnc([C@@H]5CCCN5C(=O)c5cccnc5)[nH]4)cc3)cc2)[nH]1)c1ccccc1 [Compound 183], which EC50 is on record?
The EC50 was < 1 nM.

With COC(=O)N[C@@H](C(=O)N1CCC[C@H]1c1ncc(C#Cc2ccc(-c3cnc([C@@H]4CCCN4C(=O)[C@H](NC(=O)OC)c4ccccc4)[nH]3)cc2)[nH]1)c1ccccc1 [Compound 110] as the molecule, how does the EC50 read?
The EC50 was < 1 nM.

With COC[C@H](NC(=O)OC)C(=O)N1CCC[C@H]1c1ncc(-c2ccc(C#Cc3ccc4nc([C@@H]5CCCN5C(=O)[C@H](COC)NC(=O)OC)[nH]c4c3)cc2)[nH]1 [Compound 1037] as the molecule, how does the EC50 read?
The EC50 was < 1 nM.

CC(C)[C@@H](C(=O)N1CCC[C@H]1c1ncc(-c2ccc(C#Cc3ccc(-c4cnc([C@@H]5CCCN5C(=O)[C@H](C(C)C)N5CCOC5=O)[nH]4)cc3)cc2)[nH]1)N1CCOC1=O [Compound 1006] was tested. Which EC50 did it give?
The EC50 was 10 to 999 nM.

Which EC50 does the source give for COC(=O)N[C@H](Cc1ccccc1)C(=O)N1CCC[C@H]1c1ncc(-c2ccc(C#Cc3ccc(-c4cnc([C@@H]5CCCN5C(=O)[C@H](NC(=O)OC)c5ccccc5)[nH]4)cc3)cc2)[nH]1 [Compound 180] here?
The EC50 was < 1 nM.

How did the EC50 turn out when COC(=O)N[C@H](C(=O)N1CCC[C@H]1c1ncc(-c2ccc(C#Cc3ccc(-c4cnc([C@@H]5CCCN5C(=O)[C@@H](c5ccccc5)N5CCCC5)[nH]4)cc3)cc2)[nH]1)C(C)C [Compound 984] was run?
The EC50 was < 1 nM.

With CC(C)[C@H](NC(=O)N1CC[C@H](O)C1)C(=O)N1CCC[C@H]1c1ncc(-c2ccc(C#Cc3ccc(-c4cnc([C@@H]5CCCN5C(=O)[C@@H](NC(=O)N5CC[C@H](O)C5)C(C)C)[nH]4)cc3)cc2)[nH]1 [Compound 988] as the molecule, how does the EC50 read?
Its EC50 is 10 to 999 nM.

Which EC50 does the source give for COC(=O)N[C@@H](CC(N)=O)C(=O)N1CCC[C@H]1c1ncc(-c2ccc(C#Cc3ccc4nc([C@@H]5CCCN5C(=O)[C@H](CC(N)=O)NC(=O)OC)[nH]c4c3)cc2)[nH]1 [Compound 1046] here?
The EC50 was 1 to 9.9 nM.

COC(=O)N[C@@H](C(=O)N1CCC[C@H]1c1ncc(-c2ccc(C#Cc3ccc(-c4cnc([C@@H]5CCCN5C(=O)[C@H](NC(=O)N5CCC(O)CC5)c5ccccc5)[nH]4)cc3)cc2)[nH]1)c1ccccc1 [Compound 241] was tested. Which EC50 did it give?
The EC50 was < 1 nM.

Which EC50 does the source give for O=C(N[C@@H](C(=O)N1CCC[C@H]1C(=O)Nc1ccc(C#Cc2cnc([C@@H]3CCCN3C(=O)[C@H](NC(=O)C3CC3)c3ccccc3)[nH]2)cc1)c1ccccc1)C1CC1 [Compound 117] here?
Its EC50 is < 1 nM.

Which EC50 does the source give for CC[C@H](NC(=O)OC)C(=O)N1CCC[C@H]1c1ncc(-c2ccc(C#Cc3ccc(-c4cnc([C@@H]5CCCN5C(=O)[C@H](CC)NC(=O)OC)[nH]4)cc3)cc2)[nH]1 [Compound 960] here?
The EC50 was < 1 nM.

Which EC50 does the source give for COC(=O)N[C@@H](C(=O)N1CCC[C@H]1c1ncc(-c2ccc(C#Cc3ccc(-c4cnc([C@@H]5CCCN5C(=O)[C@H](NC(=O)N5CC[C@H](O)C5)c5ccccc5)[nH]4)cc3)cc2)[nH]1)c1ccccc1 [Compound 269] here?
Its EC50 is < 1 nM.

COC(=O)N[C@@H](CC(C)C)C(=O)N1CCC[C@H]1c1ncc(-c2ccc(C#Cc3ccc(-c4cnc([C@@H]5CCCN5C(=O)[C@H](CC(C)C)NC(=O)OC)[nH]4)cc3)cc2)[nH]1 [Compound 961] was tested. Which EC50 did it give?
The EC50 was < 1 nM.

For O=C(N[C@@H](C(=O)N1CCC[C@H]1c1ncc(C#Cc2ccc(-c3ccc(-c4cnc([C@@H]5CCCN5C(=O)[C@H](NC(=O)N5CC[C@@H](O)C5)c5ccccc5)[nH]4)cc3)cc2)[nH]1)c1ccccc1)N1CC[C@@H](O)C1 [Compound 763], which EC50 is on record?
The EC50 was < 1 nM.

CC(C)(C)OC(=O)NC(C)(C)C(=O)N1CCC[C@H]1c1ncc(C#Cc2ccc(-c3cnc([C@@H]4CCCN4C(=O)C(C)(C)NC(=O)OC(C)(C)C)[nH]3)cc2)[nH]1 [Compound 106] was tested. Which EC50 did it give?
The EC50 was > 1000 nM.

For COC(=O)N[C@@H](C(=O)N[C@@H](C)c1ncc(-c2ccc(C#Cc3ccc(-c4cnc([C@@H]5CCCN5C(=O)[C@H](NC(=O)OC)c5ccccc5)[nH]4)cc3)cc2)[nH]1)c1ccccc1 [Compound 279], which EC50 is on record?
The EC50 was < 1 nM.
